Results from patent US20130217664A1, “NOVEL COMPOUNDS USEFUL FOR THE TREATMENT OF DEGENERATIVE AND INFLAMMATORY DISEASES” (priority 2012, published 2013).

Key:
[1] = target: T1, human JAK1 (Homo sapiens, UniProt P23458); assay: JAK1 inhibition assay (polyGT substrate / Ulight-JAK1 peptide); format: biochemical; conditions: recombinant human JAK1 catalytic domain; polyGT or Ulight-JAK1 peptide assay
T1 construct: catalytic domain, amino acids 866-1154; catalog number PV4774; purchased Invitrogen PV4774
T1 sequence (P23458 866-1154): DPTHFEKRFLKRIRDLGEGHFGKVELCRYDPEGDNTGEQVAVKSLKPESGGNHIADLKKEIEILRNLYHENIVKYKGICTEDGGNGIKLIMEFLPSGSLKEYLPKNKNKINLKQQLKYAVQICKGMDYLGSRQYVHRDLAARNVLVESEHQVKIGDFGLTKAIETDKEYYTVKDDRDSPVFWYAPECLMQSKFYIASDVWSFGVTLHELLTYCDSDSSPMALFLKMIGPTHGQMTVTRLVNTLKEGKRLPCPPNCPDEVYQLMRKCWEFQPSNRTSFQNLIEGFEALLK
In short: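 Two formats. PolyGT radiometric: 45 min at 30 °C, stopped with phosphoric acid, counted as cpm. Ulight-JAK1 peptide: 60 min at room temperature, stopped with Eu-anti-phosphotyrosine/EDTA, read as RFU. Percent inhibition normalised to vehicle and 10 μM staurosporine.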

[2] = target: T2, human JAK2 (Homo sapiens, UniProt O60674); assay: JAK2 inhibition assay (polyGT substrate / Ulight-JAK1 peptide); format: biochemical; conditions: recombinant human JAK2 catalytic domain; polyGT or Ulight-JAK1 peptide assay
T2 construct: catalytic domain (amino acids 808-1132; catalog number PV4210); GST; purchased Invitrogen PV4210
T2 sequence (O60674 808-1132): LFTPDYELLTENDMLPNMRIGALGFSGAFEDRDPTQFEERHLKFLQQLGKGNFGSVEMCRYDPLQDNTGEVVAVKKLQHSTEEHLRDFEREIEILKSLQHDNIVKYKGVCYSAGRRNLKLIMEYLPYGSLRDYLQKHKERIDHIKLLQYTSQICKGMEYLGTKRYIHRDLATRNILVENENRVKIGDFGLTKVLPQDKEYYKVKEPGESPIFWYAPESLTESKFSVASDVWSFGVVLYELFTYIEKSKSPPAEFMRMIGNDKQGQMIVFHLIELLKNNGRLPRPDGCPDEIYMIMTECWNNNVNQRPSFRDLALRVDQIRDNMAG
In short: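 Radiometric: 0.025 mU JAK2 with 2.5 μg polyGT, 1 μM ATP plus ^33P-ATP in MOPS pH 7.5 buffer, 1% DMSO, 90 min at 30° C.; filter counting. Alternative TR-FRET format with Ulight-JAK1 peptide, 60 min at room temperature, Eu-anti-phosphotyrosine detection.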

[3] = target: T3, human JAK3 (Homo sapiens, UniProt P52333); assay: JAK3 inhibition assay; format: biochemical; conditions: recombinant human JAK3 catalytic domain; polyGT substrate
T3 construct: catalytic domain (amino acids 781-1124; catalog number PV3855); purchased Invitrogen PV3855
T3 sequence (P52333 781-1124): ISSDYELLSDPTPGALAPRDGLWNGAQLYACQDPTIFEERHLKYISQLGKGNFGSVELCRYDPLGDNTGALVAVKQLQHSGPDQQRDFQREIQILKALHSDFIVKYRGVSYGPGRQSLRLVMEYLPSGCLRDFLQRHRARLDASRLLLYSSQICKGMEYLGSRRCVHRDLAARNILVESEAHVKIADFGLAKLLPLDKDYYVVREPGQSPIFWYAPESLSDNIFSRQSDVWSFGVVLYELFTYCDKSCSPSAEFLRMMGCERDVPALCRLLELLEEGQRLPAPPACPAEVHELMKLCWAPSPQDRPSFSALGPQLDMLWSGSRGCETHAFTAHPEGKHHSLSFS
In short: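 Radiometric kinase assay: 0.5 ng JAK3 with 2.5 μg polyGT in Tris pH 7.5/MgCl2 buffer, 1 μM ATP plus 0.25 μCi 33P-γ-ATP, 1% DMSO, 45 min at 30 °C, stopped with phosphoric acid.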

[4] = target: T4, human TYK2 (Homo sapiens, UniProt P29597); assay: TYK2 inhibition assay; format: biochemical; conditions: recombinant human TYK2 catalytic domain, polyGT substrate
T4 construct: catalytic domain (amino acids 871-1187; catalog number 08-147); purchased Carna Biosciences 08-147
T4 sequence (P29597 871-1187): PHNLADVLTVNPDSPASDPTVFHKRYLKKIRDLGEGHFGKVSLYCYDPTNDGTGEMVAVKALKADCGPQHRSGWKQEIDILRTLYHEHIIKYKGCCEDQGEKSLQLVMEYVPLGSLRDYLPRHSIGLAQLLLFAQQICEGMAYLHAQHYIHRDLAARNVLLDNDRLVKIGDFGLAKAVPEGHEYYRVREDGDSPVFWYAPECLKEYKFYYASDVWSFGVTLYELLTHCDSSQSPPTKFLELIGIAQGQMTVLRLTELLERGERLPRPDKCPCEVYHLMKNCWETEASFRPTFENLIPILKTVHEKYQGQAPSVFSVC
In short: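 Radiometric kinase reaction run 90 min at 30 °C, stopped with phosphoric acid, washed and scintillation-counted.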

[5] = tested on: CTLL-2 cell line; assay: CTLL2 viability assay; format: cell-based; conditions: Mus musculus, IL-2 dependent CTLL2 viability, 24 h, ATP-lite
Excerpt: The protocol describes the methods to analyse the activity of compounds on their ability to sustain the IL2-dependent viability of CTLL2.
Final DMSO concentration was 0.1%.

[6] = tested on: BA/F3 cell line; assay: BA/F3 viability assay; conditions: Mus musculus, BaF3, 48 h, read-out: BA/F3 IC50

Row | Compound | IC50 [1] [nM] | IC50 [2] [nM] | IC50 [3] [nM] | IC50 [4] [nM] | IC50 [6] [nM] | IC50 [5] [nM]
1 | CCc1cc(C2CN(S(=O)(=O)CCOC)C2)ccc1N(C)c1cc2c(cn1)ncn2C [Compound 349, {2-Ethyl-4-[1-(2-methoxy-ethanesulfonyl)-azetidin-3-yl]-phenyl}-methyl-(1-methyl-1H-imidazo[4,5-c]pyridin-6-yl)-amine] | 0.01 to 100 | 0.01 to 100 | 101 to 500 | 0.01 to 100 | 1000 to 5000 | > 1000
2 | CCc1cc(C2CN(S(=O)(=O)C(F)F)C2)ccc1N(C)c1cc2c(cn1)ncn2C [Compound 354, {4-[1-(Difluoro-methanesulfonyl)-azetidin-3-yl]-2-ethyl-phenyl}-methyl-(1-methyl-1H-imidazo[4,5-c]pyridin-6-yl)-amine] | 0.01 to 100 | 0.01 to 100 | 0.01 to 100 | 0.01 to 100 | 1000 to 5000 | 501 to 1000
3 | CCc1cc(CN(C)S(C)(=O)=O)cc(F)c1N(C)c1cc2c(cn1)ncn2C [Compound 356, N-{3-Ethyl-5-fluoro-4-[methyl-(1-methyl-M-imidazo[4,5-c]pyridin-6-yl)-amino]-benzyl}-N-methyl-methanesulfonamide] | 0.01 to 100 | 0.01 to 100 | 0.01 to 100 | 0.01 to 100 | 1000 to 5000 | 501 to 1000
4 | CN(c1cc2c(cn1)ncn2C)c1ccc(CN(C)S(C)(=O)=O)cc1F [Compound 358, N-{3-Fluoro-4-[methyl-(1-methyl-1H-imidazo[4,5-c]pyridin-6-yl)-amino]-benzyl}-N-methyl-methanesulfonamide] | 0.01 to 100 | 0.01 to 100 | 101 to 500 | 101 to 500 | > 5000 | > 1000
5 | CN(c1cc2c(cn1)ncn2C)c1ccc(C2CN(C(=O)OC(C)(C)C)C2)cc1OC(F)F [Compound 362, 3-{3-Difluoromethoxy-4-[methyl-(1-methyl-1H-imidazo[4,5-]pyridin-6-yl)-amino]-phenyl}-azetidine-1-carboxylic acid tert-butyl ester] | 501 to 1000 | > 1000 | > 1000 | > 1000 | > 5000 | > 1000
6 | CN(c1cc2c(cn1)ncn2C)c1ccc(C2CN(S(=O)(=O)C(F)F)C2)cc1OC(F)F [Compound 370, {4-[1-(Difluoro-methanesulfonyl)-azetidin-3-yl]-2-difluoromethoxy-henyl}-methyl-(1-methyl-1H-imidazo[4,5-c]pyridin-6-yl)-amine] | 0.01 to 100 | 0.01 to 100 | 0.01 to 100 | 101 to 500 | 1000 to 5000 | > 1000
7 | CCc1cc(CNS(=O)(=O)N(C)C)ccc1N(C)c1cc2c(cn1)ncn2C [Compound 375, Dimethyl amino-N-{3-Ethyl-4-[methyl-(1-methyl-1H-imidazo[4,5-c]pyridin-6-yl)-amino]-benzyl}-sulfonamide] | 0.01 to 100 | 0.01 to 100 | 101 to 500 | 101 to 500 | 1000 to 5000 | > 1000
8 | CCc1cc(CNS(=O)(=O)NC)ccc1N(C)c1cc2c(cn1)ncn2C [Compound 376, Methyl amino-N-{3-Ethyl-4-[methyl-(1-methyl-1H-imidazo[4,5-c]pyridin-6-yl)-amino]-benzyl}-sulfonamide] | 0.01 to 100 | 0.01 to 100 | 101 to 500 | 101 to 500 | 1000 to 5000 | > 1000
9 | CCc1cc(C2CCN(S(C)(=O)=O)CC2)ncc1N(C)c1cc2c(cn1)ncn2C [Compound 383, (4-Ethyl-1′-methanesulfonyl-1′,2′,3′,4′,5′,6′-hexahydro-[2,4′]bipyridinyl-5-yl)-methyl-(1-methyl-1H-imidazo[4,5-c]pyridin-6-yl)-amine] | 0.01 to 100 | 101 to 500 | 501 to 1000 | 501 to 1000 | 1000 to 5000 | > 1000

The next lines start with results.

Row | IC50 [1] [nM] | IC50 [2] [nM] | IC50 [3] [nM] | IC50 [4] [nM] | IC50 [6] [nM] | Compound | IC50 [5] [nM]
10 | 0.01 to 100 | 101 to 500 | > 1000 | 101 to 500 | > 5000 | CCc1cc(C2CN(C(=O)COC)C2)ccc1N(C)c1cc2c(cn1)ncn2C [Compound 350, 1-(3-{3-Ethyl-4-[methyl-(1-methyl-1H-imidazo[4,5-c]pyridin-6-yl)-amino]-phenyl}-azetidin-1-yl)-2-methoxy-ethanone] | > 1000
11 | 0.01 to 100 | 0.01 to 100 | 101 to 500 | 101 to 500 | > 5000 | CCc1cc(C2CN(CC#N)C2)ccc1N(C)c1cc2c(cn1)ncn2C [Compound 351, (3-{3-Ethyl-4-[methyl-(1-methyl-1H-imidazo[4,5-c]pyridin-6-yl)-amino]-phenyl}-azetidin-1-yl)-acetonitrile] | > 1000
12 | 0.01 to 100 | 0.01 to 100 | 0.01 to 100 | 0.01 to 100 | > 5000 | CCc1cc(C2CN(S(=O)(=O)CC(F)(F)F)C2)ccc1N(C)c1cc2c(cn1)ncn2C [Compound 352, {2-Ethyl-4-[1-(2,2,2-trifluoro-ethanesulfonyl)-azetidin-3-yl]-phenyl}-methyl-(1-methyl-1H-imidazo[4,5-c]pyridin-6-yl)-amine] | > 1000
13 | 0.01 to 100 | 0.01 to 100 | 0.01 to 100 | 0.01 to 100 | 1000 to 5000 | CCc1cc(C2CN(S(=O)(=O)CC#N)C2)ccc1N(C)c1cc2c(cn1)ncn2C [Compound 353, (3-{3-Ethyl-4-[methyl-(1-methyl-1H-imidazo[4,5-c]pyridin-6-yl)-amino]-phenyl}-azetidine-1-sulfonyl)-acetonitrile] | 501 to 1000
14 | 0.01 to 100 | 0.01 to 100 | 0.01 to 100 | 0.01 to 100 | 1000 to 5000 | CCc1cc(CN(CC#N)S(C)(=O)=O)cc(F)c1N(C)c1cc2c(cn1)ncn2C [Compound 357, N-Cyanomethyl-N-{3-ethyl-5-fluoro-4-[methyl-(1-methyl-1H-imidazo[4,5-c]pyridin-6-yl)-amino]-benzyl}-methanesulfonamide] | > 1000
15 | 0.01 to 100 | 101 to 500 | 101 to 500 | > 1000 | > 5000 | CN(c1cc2c(cn1)ncn2C)c1ccc(C2CN(CC(F)(F)F)C2)cc1OC(F)F [Compound 364, {2-Difluoromethoxy-4-[1-(2,2,2-trifluoro-ethyl)-azetidin-3-yl]-phenyl}-methyl-(1-methyl-1H-imidazo[4,5-c]pyridin-6-yl)-amine] | > 1000
16 | 0.01 to 100 | 101 to 500 | 101 to 500 | 101 to 500 | 1000 to 5000 | CN(c1cc2c(cn1)ncn2C)c1ccc(C2CN(S(=O)(=O)N(C)C)C2)cc1OC(F)F [Compound 369] | > 1000
17 | 0.01 to 100 | > 1000 | > 1000 | > 1000 | > 5000 | CCc1cc(CNC(=O)C2CCC(F)(F)CC2)ccc1N(C)c1cc2c(cn1)ncn2C [Compound 377, 4,4-Difluoro-cyclohexanecarboxylic acid 3-ethyl-4-[methyl-(1-methyl-1H-imidazo[4,5-c]pyridin-6-yl)-amino]-benzylamide] | > 1000
18 | 0.01 to 100 | 101 to 500 | 101 to 500 | 101 to 500 | > 5000 | CCc1cc(CNCC(F)F)ccc1N(C)c1cc2c(cn1)ncn2C [Compound 379] | > 1000
19 | 0.01 to 100 | 0.01 to 100 | 101 to 500 | 101 to 500 | 1000 to 5000 | CCc1cc(CNCC(F)(F)F)ccc1N(C)c1cc2c(cn1)ncn2C [Compound 380] | > 1000
20 | 0.01 to 100 | 101 to 500 | > 1000 | 501 to 1000 | > 5000 | CCc1cc(CN2CC(C#N)C2)ccc1N(C)c1cc2c(cn1)ncn2C [Compound 381, 1-{3-Ethyl-4-[methyl-(1-methyl-1H-imidazo[4,5-c]pyridin-6-yl)-amino]-enzyl}-azetidine-3-carbonitrile] | > 1000
